Assay results reported in ChEMBL document CHEMBL1201862, “PubChem BioAssay data set” (2004).
Calls of active or inactive are those of the source.

Experiments:
Ion channel NompC = Ion channel NompC (Danio rerio, UniProt Q7T1G6); experiment: Fluorescence counterscreen assay for TRPML3 agonists: dose response cell-based high-throughput screening assay to identify agonists of the transient receptor potential channel N1 (TRPN1). [Related pubchem assays: 1526, 1424, 1448 ]; format: functional
Mucolipin-3 = target: T1, Mucolipin-3 (Homo sapiens, UniProt Q8TDD5); experiment: Dose response cell-based high-throughput screening assay for agonists of the transient receptor potential channel ML3 (TRPML3). [Related pubchem assays: 1526, 1424, 1448 ]; format: functional
T1 sequence (Q8TDD5 whole entry): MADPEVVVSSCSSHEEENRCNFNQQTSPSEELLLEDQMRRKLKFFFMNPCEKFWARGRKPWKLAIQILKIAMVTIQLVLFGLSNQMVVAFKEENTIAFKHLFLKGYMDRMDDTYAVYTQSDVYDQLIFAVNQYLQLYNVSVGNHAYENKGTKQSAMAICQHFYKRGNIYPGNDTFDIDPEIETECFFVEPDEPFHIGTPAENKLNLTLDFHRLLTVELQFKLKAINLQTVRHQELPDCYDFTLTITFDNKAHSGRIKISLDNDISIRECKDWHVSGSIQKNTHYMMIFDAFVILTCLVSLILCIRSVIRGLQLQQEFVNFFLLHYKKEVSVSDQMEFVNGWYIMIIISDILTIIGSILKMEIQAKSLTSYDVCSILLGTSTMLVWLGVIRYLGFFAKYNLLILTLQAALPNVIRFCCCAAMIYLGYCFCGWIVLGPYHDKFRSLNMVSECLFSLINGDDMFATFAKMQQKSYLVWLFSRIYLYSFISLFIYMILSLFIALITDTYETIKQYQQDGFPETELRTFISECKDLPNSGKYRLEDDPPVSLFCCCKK

[1] = target: T2, Polyadenylate-binding protein 1 (Homo sapiens, UniProt P11940); experiment: PABP inhibition in translation initiation, SAR follow-up (AID 435018); format: functional
T2 sequence (P11940 whole entry): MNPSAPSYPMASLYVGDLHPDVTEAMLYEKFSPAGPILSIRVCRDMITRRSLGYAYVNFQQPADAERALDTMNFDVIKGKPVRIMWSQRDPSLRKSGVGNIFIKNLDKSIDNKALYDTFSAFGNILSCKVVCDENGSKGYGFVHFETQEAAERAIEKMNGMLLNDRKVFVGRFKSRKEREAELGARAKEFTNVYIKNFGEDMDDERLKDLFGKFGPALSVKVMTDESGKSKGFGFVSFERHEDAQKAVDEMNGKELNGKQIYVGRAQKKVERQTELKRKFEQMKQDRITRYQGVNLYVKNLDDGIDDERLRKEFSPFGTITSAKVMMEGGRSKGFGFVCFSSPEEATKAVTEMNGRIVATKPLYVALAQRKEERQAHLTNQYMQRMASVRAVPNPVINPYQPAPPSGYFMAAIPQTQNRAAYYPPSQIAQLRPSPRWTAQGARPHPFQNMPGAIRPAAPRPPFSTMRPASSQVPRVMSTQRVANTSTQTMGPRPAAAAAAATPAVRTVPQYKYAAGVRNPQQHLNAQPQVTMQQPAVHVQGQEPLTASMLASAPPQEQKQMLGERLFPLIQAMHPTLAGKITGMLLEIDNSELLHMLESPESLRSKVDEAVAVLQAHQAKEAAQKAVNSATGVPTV

[2] = target: Eukaryotic translation initiation factor 4H (Homo sapiens, UniProt Q15056); experiment: eIF4H inhibition in translation initiation, SAR follow-up (AID 435011); format: functional
[3] = M. tuberculosis H37Rv growth inhibitors, H37Rv strain (AID 1626); format: functional
cells = format: functional
Estrogen receptor = target: T3, Estrogen receptor (Homo sapiens, UniProt P03372);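 further: potency for inhibiting coactivator peptide recruitment to the receptor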
T3 sequence (P03372 whole entry): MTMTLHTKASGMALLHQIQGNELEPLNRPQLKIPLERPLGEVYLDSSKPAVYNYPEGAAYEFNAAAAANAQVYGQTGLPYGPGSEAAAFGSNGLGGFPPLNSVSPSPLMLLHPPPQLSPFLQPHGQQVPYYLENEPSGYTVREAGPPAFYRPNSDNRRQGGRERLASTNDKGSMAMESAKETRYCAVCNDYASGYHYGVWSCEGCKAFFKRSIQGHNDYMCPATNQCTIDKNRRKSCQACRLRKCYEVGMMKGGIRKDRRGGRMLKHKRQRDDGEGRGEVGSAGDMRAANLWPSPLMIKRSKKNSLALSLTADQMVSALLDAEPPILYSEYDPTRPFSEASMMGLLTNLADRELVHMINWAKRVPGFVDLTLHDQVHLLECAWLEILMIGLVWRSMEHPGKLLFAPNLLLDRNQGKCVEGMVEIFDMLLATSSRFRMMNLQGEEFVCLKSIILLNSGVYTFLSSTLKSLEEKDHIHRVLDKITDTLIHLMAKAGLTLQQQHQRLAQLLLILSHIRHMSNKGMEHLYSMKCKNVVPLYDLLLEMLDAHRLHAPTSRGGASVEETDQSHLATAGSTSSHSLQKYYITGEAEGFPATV

CHO = experiment: cytotoxicity in TLR9-MyD88 CHO cells, dose response, cytotoxicity control for TLR9-MyD88 binding inhibitor project, cell-based, luminescence (AID 588339); format: functional, hamster; conditions: Cricetulus griseus;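 further: CHO cells stably coexpressing TLR9 and MyD88 fusions from primary screen; compound exposure lasted 48 hours before viability readout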
Vero = Vero cell cytotoxicity, cytotoxicity control for flavivirus capping enzyme inhibitors (AID 588742); format: functional; conditions: Chlorocebus sabaeus
Hexokinase HKDC1 = target: T4, Hexokinase HKDC1 (Homo sapiens, UniProt Q2TB90); experiment: HKDC1 hexokinase inhibitors, dose response, biochemical, W721R variant (AID 504729); format: functional
T4 sequence (Q2TB90 whole entry): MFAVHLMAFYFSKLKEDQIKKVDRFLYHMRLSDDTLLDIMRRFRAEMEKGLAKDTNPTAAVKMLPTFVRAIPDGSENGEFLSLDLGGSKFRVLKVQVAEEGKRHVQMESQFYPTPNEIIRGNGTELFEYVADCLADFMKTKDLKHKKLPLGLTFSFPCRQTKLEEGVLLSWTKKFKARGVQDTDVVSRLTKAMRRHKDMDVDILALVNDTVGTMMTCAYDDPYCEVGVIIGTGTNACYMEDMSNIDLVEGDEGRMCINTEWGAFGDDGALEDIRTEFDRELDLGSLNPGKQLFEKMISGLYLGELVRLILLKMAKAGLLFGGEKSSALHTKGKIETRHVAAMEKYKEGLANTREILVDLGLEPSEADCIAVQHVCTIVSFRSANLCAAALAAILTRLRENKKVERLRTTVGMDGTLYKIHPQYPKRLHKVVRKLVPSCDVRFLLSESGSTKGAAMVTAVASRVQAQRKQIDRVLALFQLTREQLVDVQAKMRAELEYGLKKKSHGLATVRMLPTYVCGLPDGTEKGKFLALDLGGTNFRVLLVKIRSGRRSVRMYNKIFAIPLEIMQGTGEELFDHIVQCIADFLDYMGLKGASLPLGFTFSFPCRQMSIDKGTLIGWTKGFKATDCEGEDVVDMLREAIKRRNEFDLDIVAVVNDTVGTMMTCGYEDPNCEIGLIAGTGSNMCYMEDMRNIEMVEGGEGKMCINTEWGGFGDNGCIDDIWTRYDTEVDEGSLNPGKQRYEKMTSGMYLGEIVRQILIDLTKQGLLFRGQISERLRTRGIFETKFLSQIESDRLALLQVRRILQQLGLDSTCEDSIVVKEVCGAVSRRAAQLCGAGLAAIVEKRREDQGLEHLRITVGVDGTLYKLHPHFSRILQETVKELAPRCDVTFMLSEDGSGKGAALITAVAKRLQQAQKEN

[4] = target: T5, Tyrosyl-DNA phosphodiesterase 2 (Homo sapiens, UniProt O95551); experiment: human TDP2 enzyme inhibitors, dose response, biochemical, epi absorbance, IC50 (AID 743297)
T5 sequence (O95551 whole entry): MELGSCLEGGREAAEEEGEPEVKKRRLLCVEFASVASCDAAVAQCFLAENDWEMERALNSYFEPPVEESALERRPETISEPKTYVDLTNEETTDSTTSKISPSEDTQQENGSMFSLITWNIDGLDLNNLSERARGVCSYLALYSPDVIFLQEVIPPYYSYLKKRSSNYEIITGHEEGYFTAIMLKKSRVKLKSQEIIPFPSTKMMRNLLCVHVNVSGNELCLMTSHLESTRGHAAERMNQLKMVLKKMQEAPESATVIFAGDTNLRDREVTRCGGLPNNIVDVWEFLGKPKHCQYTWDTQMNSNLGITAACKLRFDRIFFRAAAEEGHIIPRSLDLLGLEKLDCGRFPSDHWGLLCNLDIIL

[5] = target: Heat shock protein HSP 90-alpha (Homo sapiens, UniProt P07900); format: functional, organism-based
[6] = target: T2, Polyadenylate-binding protein 1; experiment: PABP1 MLLE–PAM2 interaction inhibitors, dose response, miRNA deadenylation inhibitor project, biochemical, fluorescence polarization, Cy5-PAM2 peptide, secondary (AID 602260); format: functional; conditions: read-out: IC50_Mean
Fatty acid synthase [7] = target: T6, Fatty acid synthase (Homo sapiens, UniProt P49327); experiment: FAS thioesterase domain inhibitors, dose response, biochemical, kinetic fluorescence intensity (AID 624326); format: functional;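 further: rate of fluorescence rise from hydrolysis of a fluorogenic O-methyl fluorescein ester substrate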
T6 sequence (P49327 whole entry, the tested form may be a part): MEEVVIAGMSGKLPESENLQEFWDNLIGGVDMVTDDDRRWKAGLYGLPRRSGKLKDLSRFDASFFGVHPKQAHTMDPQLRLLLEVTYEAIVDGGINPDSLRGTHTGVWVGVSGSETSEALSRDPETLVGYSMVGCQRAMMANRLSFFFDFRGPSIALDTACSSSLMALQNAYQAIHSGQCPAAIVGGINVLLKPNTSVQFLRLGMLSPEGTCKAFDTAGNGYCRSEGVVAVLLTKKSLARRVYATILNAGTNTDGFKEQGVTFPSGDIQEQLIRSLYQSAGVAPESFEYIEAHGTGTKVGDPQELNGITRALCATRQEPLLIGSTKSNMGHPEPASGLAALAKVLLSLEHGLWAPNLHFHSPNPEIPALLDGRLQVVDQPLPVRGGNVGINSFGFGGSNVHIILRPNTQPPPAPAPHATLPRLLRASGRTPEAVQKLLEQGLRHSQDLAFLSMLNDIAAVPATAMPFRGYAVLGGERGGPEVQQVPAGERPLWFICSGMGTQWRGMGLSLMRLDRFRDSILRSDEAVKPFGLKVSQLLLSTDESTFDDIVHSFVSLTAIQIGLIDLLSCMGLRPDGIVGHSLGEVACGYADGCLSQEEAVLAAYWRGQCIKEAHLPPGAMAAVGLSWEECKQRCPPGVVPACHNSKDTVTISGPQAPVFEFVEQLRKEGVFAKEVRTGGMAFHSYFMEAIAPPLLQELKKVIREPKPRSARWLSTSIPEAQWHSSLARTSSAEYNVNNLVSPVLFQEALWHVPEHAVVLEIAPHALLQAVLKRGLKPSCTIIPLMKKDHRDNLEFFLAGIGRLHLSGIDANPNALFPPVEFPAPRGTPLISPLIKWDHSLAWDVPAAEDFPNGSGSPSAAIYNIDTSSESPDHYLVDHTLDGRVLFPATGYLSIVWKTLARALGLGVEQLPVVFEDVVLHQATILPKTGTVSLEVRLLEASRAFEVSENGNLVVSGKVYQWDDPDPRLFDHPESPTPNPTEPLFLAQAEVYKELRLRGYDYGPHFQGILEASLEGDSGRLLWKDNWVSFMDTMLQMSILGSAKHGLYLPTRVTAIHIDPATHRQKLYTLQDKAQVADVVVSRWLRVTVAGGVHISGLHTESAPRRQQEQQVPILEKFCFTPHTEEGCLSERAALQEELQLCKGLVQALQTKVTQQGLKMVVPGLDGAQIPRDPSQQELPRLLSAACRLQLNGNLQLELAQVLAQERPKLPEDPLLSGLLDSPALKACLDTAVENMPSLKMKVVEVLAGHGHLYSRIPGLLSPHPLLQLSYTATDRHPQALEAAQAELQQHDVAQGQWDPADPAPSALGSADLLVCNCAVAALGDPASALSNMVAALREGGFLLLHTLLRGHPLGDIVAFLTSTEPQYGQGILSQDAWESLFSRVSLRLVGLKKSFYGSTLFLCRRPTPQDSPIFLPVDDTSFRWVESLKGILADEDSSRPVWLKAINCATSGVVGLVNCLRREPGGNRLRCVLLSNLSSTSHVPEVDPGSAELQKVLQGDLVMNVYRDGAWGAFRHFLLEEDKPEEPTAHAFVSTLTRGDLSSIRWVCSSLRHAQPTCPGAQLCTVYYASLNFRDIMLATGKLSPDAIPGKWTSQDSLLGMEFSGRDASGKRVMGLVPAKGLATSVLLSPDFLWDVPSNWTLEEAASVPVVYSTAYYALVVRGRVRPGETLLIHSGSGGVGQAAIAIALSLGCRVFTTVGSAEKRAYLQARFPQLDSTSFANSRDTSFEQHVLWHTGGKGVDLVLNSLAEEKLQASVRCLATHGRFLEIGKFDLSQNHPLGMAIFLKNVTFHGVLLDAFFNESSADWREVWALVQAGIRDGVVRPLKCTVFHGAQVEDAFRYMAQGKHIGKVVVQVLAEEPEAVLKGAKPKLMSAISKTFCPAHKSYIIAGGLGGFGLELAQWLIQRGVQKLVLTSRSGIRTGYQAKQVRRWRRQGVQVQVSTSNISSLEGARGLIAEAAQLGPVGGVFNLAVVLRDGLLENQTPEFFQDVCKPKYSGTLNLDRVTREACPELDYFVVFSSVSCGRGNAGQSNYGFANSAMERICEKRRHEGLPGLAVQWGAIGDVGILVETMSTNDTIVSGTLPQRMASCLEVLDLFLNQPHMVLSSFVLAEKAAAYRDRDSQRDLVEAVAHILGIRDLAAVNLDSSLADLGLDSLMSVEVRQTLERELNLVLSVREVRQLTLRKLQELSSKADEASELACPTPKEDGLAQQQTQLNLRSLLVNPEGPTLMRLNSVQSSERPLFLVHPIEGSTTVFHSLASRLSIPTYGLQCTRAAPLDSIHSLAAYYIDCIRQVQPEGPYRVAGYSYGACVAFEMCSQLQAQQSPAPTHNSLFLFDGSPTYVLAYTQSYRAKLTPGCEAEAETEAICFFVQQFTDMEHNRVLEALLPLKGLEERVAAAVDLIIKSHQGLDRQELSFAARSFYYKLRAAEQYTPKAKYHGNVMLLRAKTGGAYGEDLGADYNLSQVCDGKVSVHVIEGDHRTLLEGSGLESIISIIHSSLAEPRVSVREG

Paired box protein Pax-8 = Paired box protein Pax-8 (Homo sapiens, UniProt Q06710); experiment: inhibitors of PAX8-driven TPO luciferase reporter, dose response, RMG-I cells, cherry-pick (AID 687027); format: functional, cell-based;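 further: luciferase reporter driven by Pax8 target thyroperoxidase promoter measured by SteadyGlo luminescence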
Paired box protein Pax-8, sequence (Q06710 whole entry): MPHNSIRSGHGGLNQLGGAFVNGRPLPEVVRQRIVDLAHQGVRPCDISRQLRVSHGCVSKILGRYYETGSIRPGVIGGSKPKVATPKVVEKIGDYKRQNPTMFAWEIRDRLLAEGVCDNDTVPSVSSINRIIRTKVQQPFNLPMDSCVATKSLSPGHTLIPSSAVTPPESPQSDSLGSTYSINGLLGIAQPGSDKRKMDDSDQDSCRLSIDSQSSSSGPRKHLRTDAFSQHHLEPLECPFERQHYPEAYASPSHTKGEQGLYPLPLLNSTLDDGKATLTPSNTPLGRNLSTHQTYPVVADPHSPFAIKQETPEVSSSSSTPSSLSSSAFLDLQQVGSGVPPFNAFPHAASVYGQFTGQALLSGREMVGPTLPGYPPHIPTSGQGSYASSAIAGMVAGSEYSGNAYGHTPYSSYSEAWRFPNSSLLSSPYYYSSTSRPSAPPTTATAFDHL

[8] = non-specific cell cytotoxicity, dose response, cytotoxicity control for PAX8 inhibitor project, plate reader, dry powder samples (AID 743021); format: functional, cell-based
Genome polyprotein = Genome polyprotein (dengue virus type 2, UniProt P29990); experiment: Dengue-2 NS5 methyltransferase inhibitors, primary screen, biochemical, confirmation dose response (AID 588689); format: functional
Genome polyprotein, sequence (P29990 2492-3391 limits assumed): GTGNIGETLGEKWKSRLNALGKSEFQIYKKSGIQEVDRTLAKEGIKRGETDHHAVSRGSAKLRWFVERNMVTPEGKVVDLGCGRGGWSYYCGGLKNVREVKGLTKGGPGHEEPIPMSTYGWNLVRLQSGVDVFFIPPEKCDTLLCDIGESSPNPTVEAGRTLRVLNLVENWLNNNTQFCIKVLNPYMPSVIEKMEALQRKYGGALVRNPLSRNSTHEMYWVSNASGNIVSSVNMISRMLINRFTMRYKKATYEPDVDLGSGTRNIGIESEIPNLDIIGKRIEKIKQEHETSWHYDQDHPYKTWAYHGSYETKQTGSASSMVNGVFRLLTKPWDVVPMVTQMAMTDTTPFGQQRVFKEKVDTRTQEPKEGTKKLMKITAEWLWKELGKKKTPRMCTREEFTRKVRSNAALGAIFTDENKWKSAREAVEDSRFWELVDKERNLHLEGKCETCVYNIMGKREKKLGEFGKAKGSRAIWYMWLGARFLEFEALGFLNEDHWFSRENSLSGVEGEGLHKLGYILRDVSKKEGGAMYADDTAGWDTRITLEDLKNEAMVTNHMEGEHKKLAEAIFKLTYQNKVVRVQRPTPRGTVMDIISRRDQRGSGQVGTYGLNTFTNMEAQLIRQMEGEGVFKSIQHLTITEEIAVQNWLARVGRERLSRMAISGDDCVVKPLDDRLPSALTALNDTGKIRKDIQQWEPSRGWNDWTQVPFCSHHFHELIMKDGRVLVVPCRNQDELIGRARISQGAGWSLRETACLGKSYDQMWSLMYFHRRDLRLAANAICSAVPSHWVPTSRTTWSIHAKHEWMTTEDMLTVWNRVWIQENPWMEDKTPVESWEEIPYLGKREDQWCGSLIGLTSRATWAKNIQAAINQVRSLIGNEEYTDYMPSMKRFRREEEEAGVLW

Beta Lactamase = Beta Lactamase (Pseudomonas aeruginosa, UniProt Q932Y6); experiment: beta-lactamase reporter inhibitor potency, dose response, artefact control for TLR9-MyD88 binding inhibitor project, BLA reporter cells, FRET fluorescence (AID 588341); format: cell-based;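 further: cell based assay in CHO-K1 cells stably expressing beta-lactamase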
Beta Lactamase, sequence (Q932Y6 whole entry): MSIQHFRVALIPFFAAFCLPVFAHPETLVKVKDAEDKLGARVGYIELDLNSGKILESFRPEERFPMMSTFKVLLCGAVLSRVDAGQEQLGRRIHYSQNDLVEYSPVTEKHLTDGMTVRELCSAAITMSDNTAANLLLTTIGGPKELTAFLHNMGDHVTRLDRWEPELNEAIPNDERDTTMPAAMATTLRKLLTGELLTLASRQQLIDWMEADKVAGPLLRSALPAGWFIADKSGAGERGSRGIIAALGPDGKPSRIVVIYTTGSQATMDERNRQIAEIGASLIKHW

[9] = target: T2, Polyadenylate-binding protein 1; experiment: PABP1 MLLE–PAM2 binding inhibitor potency, dose response, biochemical, fluorescence polarization, FITC-PAM2 peptide (AID 602259); format: functional; conditions: read-out: IC50_Mean
Fatty acid synthase [10] = target: T6, Fatty acid synthase; experiment: FAS thioesterase domain inhibitors, dose response, biochemical, endpoint fluorescence intensity, uHTS hits (AID 624327); format: functional;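 further: fluorescence from hydrolysis of an O-methyl fluorescein acyl ester substrate by the enzyme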
[11] = THP-1 cell cytotoxicity, dose response, cytotoxicity control for Vif-APOBEC3G degradation inhibitor project, THP-1 cells (AID 1117359); format: functional; conditions: Human immunodeficiency virus 1, THP-1

Structure (SMILES): CCC1CCCCN1S(=O)(=O)c1ccccc1[N+](=O)[O-] (configuration not stated)
- EC50 (Ion channel NompC): > 29.9 µM (not active)
- EC50 (Mucolipin-3): 6.06 µM (active)

Structure (SMILES): COc1ccc(NC(=O)C2CCCN2C(=O)Oc2ccccc2)cc1 (configuration not stated)
- IC50 [1]: > 100 µM (inactive)
- IC50 [2]: > 100 µM (inactive)

Structure (SMILES): CCOC(=O)c1ccc(-n2c(CCC(=O)O)ccc2-c2cccs2)cc1
- IC50 [3]: > 100 µM (active)
- IC50 (cells): 36.2 µM (active)

Structure (SMILES): CCOc1cccc(-c2nnc3sc(-c4cc(OC)c(OC)c(OC)c4)nn23)c1
- IC50 (Estrogen receptor): > 50 µM (not active)

Structure (SMILES): CCCC(=O)NC1=C(Cl)C(=O)c2ccccc2C1=O
- IC50 (CHO): 0.891 µM (active)
- CC50 (Vero): 27.4 µM (active)
- IC50 (Hexokinase HKDC1): 3.93 µM (active)
- IC50 [4]: 11.8 µM (inactive)
- AC50 [5]: < 0.195 µM (active)
- IC50 [6]: > 66 µM (inactive)
- IC50 (Fatty acid synthase [7]): 12.7 µM (active)
- AC50 (Paired box protein Pax-8): 2.54 µM (active)
- AC50 [8]: 28.3 µM (active)
- IC50 (Genome polyprotein): 14.5 µM (active)
- IC50 (Beta Lactamase): 6.78 µM (active)
- IC50 [9]: > 66 µM (inactive)
- IC50 (Fatty acid synthase [10]): 37.7 µM (inactive)
- CC50 [11]: 3.81 µM (active)

Structure (SMILES): O/N=C/c1ccc2ccccc2c1
- IC50 [3]: > 100 µM (active)
